Results as given in patent EP0579804B1, “BIOLOGICAL ARTIFICIAL LIVER” (MONSANTO COMPANY, priority 1992, dated 1993).

Tested on: Hepatocytes
Experiment: extracorporeal hepatic metabolism in the hepatocyte bioreactor attached to an ahepatic pig
Assay type: in vitro ADME, outbred Yorkshire/white pig
Details: administered into the ultrafiltrate at the inlet of the bioreactor; metabolites 7-OH-coumarin and monoethylglycinexylidide (MEGX) measured at the outlets of the bioreactors
Description: The medium used was the hormone-supplemented Waymouth medium as described in Example 1. To accommodate 2 to 5 billion cells, the bioreactor was scaled up to two containment vessels, each with an internal diameter of 40 mm and a height of 100 mm. Glass beads of approx. 2 mm diameter and a total volume of 250 ml per containment vessel were used. Medium was perfused at a recycle rate of 360 ml/min.. […] The bioreactor was attached to an ahepatic pig (liver removed by surgery to mimic total hepatic failure) at approx. 2 hrs. after hepatocyte inoculation. Blood from the left femoral artery was directed into a Minntech hemoconcentrator. A 12 fringe elecath canula was inserted into the femoral artery and connected to a 1/4" PVC tubing to the hemoconcentrator. The hemoconcentrator separated the blood into a cell free ultrafiltrate fraction, and a blood cell fraction. The blood cell fraction was returned to the femoral vein via a similar tubing. The ultrafiltrate exited the hemoconcentrator via a 1/4" PVC tubing and entered the hepatocyte bioreactor system with the flow rate adjusted to 40 ml/min. using a roller pump. […] The respective metabolites, 7-OH-coumarin and monoethylglycinexylidide (MEGX), were measured at the outlets of the bioreactors before the ultrafiltrate was returned to the animal.

metabolism: Significant metabolism
SMILES: CCOc1ccc2ccc(=O)oc2c1 [7-ethoxycoumarin]
